Measurements reported in PMC4919643, “Intestinally-targeted TGR5 agonists equipped with quaternary ammonium have an improved hypoglycemic effect and reduced gallbladder filling effect” (Scientific Reports, 2016).
Like-named read-outs stand apart in the source and are kept apart here.

How the values were obtained:
[1] = Solubility in water determined by LC-MS/MS; format: physicochemical
ICR mice = test: Oral glucose tolerance test (OGTT) in ICR mice; format: in vivo, mouse
Description: Blood glucose levels were measured berefore and after glucose loading. *p < 0.05, **p < 0.01 vs. control. Error bar indicateds SEM (standard error of the mean). […]
Oral glucose tolerance test (OGTT) and gallbladder filling assay in ICR mice. 100 […]
mice (n = 7-8) 90 min prior to the oral glucose load (4 g/kg). Blood glucose levels were measured via blood drops obtained by clipping the tail of the mice using an Accu-Chek Advantage II Glucose Monitor (Roche, Indianapolis, IN, USA) before compound dosing and 0, 15, 30, 60, and 120 min after the glucose load. The area under the concentration−time curve from 0 to 120 min (AUC0−120 min, Glu) of blood glucose after the glucose load was calculated by the trapezoidal rule. […]

ob/ob mice [2] = test: Acute efficacy (blood glucose) in ob/ob mice; format: in vivo, mouse; conditions: 100 mg/kg p.o. single dose
Description: Mice were refed at 6 h after dosing. *p < 0.05, **p < 0.01 vs. control. Error bar indicates SEM.
Acute efficacy in ob/ob mice. 7-week-old ob/ob mice (male) were divided into three groups (n = 8) based on 2 h-fasted blood glucose. […]
mg/kg) and 0.25% CMC (control) was then orally administered to 2 h-fasted mice, and blood glucose was measured at 2, 4, 6, 8, 10, and 24 h after dosing. The animals were refed at 6 h after dosing.
GLP-1 secretion in ob/ob mice. The ob/ob mice (female) were divided into 4 groups and […]
then divided into 3 subgroup of different time point (n = 8-9 each subgroup). All the animals were fasted for 6 hours before collecting blood samples at the indicated time points. At other times, animals were free accessed to water and food. […] Concentrations of active GLP-1[7-36 amide] in the serum were measured using ELISA kit from Linco Research. […]
administered to 12 h-fasted ob/ob mice (n = 3 per time point). […] After centrifugation at 11000 rpm for 5 mins, the supernatant was analyzed by LC-MS/MS. […]
administered orally to overnight-fasted ob/ob mice (male, n = 3-6). 1 h after dosing, mice were refed for 3 hours, and then gallbladders were removed, and the area was measured using vernier caliper. The relative gallbladder area was calculated from the length multiplied by the width of the gallbladder. The bile weight was measured using […]

[3] = Pharmacokinetics assay of 26a in ob/ob mice (plasma and intestinal tissue); format: in vivo, mouse
Description: The blood and intestinal tissue samples were collected before dosing or 2, 4, 6, 10, 16, and 24 h after dosing. Density of intestinal tissue was taken as 1 g/ml. Error bar indicates SEM. […]
Pharmacokinetics assay of 26a in ob/ob mice. […]
administered to 12 h-fasted ob/ob mice (n = 3 per time point). Blood and intestinal tissue samples were collected before dosing or 2 h, 4 h, 6 h, 10 h 16 h, 24 h after dosing. Blood samples were centrifuged at 11000 rpm for 5 min to isolate the plasma. 25 μL of the sample was mixed with 75 μL MeOH. After centrifugation at 11000 rpm for 5 mins, the supernatant was analyzed by LC-MS/MS.
The tissues were ground and homogenated with 0.9% NaCl solution (1:4, w/v), and then the homogenates were centrifuged at 12,000 rpm for 10 min at 4 °C. The supernatant was collected, and 100 μL aliquot of supernatant was spiked with 300 μL methanol, and then treated as the same fashion as plasma sample. […]

[4] = Drug levels in plasma, bile and gallbladder tissue after 3 days oral administration to ob/ob mice; format: in vivo; conditions: male, mouse, after the 3-day gallbladder filling assay, 100 mg/kg p.o.
Description: Drug levels test in plasma, bile, and gallbladder tissue after 3 days oral administration to ob/ob mice. Plasma, bile, and gallbladder were taken from experiments performed in accordance with the guidelines for the use of experimental animals in the Shanghai Laboratory Animal Administration (Shanghai, China) after three days treatment of 26a to ob/ob mice. Blood samples were collected through cardiac puncture into heparinized tubes, and plasma was harvested by centrifugation. Bile and gallbladder tissue were collected from each mouse after blood withdrawal. To 10 mg of gallbladder was added 100 μL of MeOH, and the mixture was homogenized. A 15 μL aliquot of bile samples was diluted with 100 μL of MeOH and then mixed. Plasma, bile, and tissue homogenate were stored at −20 °C. These samples were protein precipitated with MeCN using clopidogrel as the internal standard, and the supernatant was injected onto a LC-MS/MS system for the quantification of 26a. Chromatographic separation was […]
0.5 mL min−1 using ternary mobile phase: A (H2O with 5 mM ammonium acetate and 0.5% TFA); B(MeCN: H2O = 95:5 with 0.1% TFA ); C (MeOH with 1% TFA). The MS/MS detection was carried out in MRM mode using a positive electrospray ionization […]
Long-term study of 26a in ob/ob mice. Three groups of ob/ob mice (male) was orally […]
At day 0 (before dosing), 4, 8, 12 and 18, non-fasted blood glucose was measured before dosing. Mice were fasted for 6 h after dosing and then fasted blood glucose was measured.
The serum level of HbA1c was measured at day 0 (before dosing) and 18 by Adicon biochemical analyzer. The body weight of each mouse was recorded every day. The triglyceride and total cholesterol level was measured after the final dose.
Statistical analysis. All data were expressed as the mean ± SEM or mean ± SD. For the experiment including multiple time points, one-way ANOVA statistical analysis was used; otherwise, unpaired Student’s t test was used. P < 0.05 was considered to be statistically significant.

ob/ob mice [5] = test: Long-term (18-day) study in ob/ob mice; format: in vivo, mouse; conditions: for decrease of HbA1c level on day 18: 18 days; for HbA1c, signed change vs control (Fig. 9C): day 18
[6] = 100 mg/kg p.o., after 18-day treatment
[7] = 18-day treatment, 50 or 100 mg/kg p.o., dose-dependent
[8] = 18-day treatment, data not shown

solubility [1]: 1800 µg/mL | time of Cmax in intestinal tissue ([3]; 100 mg/kg p.o. single dose): 2 h | time of Cmax in plasma ([3]; 100 mg/kg p.o. single dose): 2 h | Cmax ([3]; male, mouse, colon, po, 100 mg/kg p.o., at 2 h, tissue density taken as 1 g/ml, read-out: Cmax in colon tissue): 27000 ng/mL | Cmax ([3]; male, mouse, duodenum, po, 100 mg/kg p.o., at 2 h, tissue density taken as 1 g/ml, read-out: Cmax in duodenum tissue): 136000 ng/mL | Cmax ([3]; male, mouse, ileum, po, 100 mg/kg p.o., at 2 h, tissue density taken as 1 g/ml, read-out: Cmax in ileum tissue): 331000 ng/mL | concentration at 24 h ([3]; male, mouse, intestinal tissue, po, 100 mg/kg p.o. single dose, read-out: level in intestinal tissue at 24 h): > 800 ng/mL | Cmax ([3]; male, mouse, jejunum, po, 100 mg/kg p.o., at 2 h, tissue density taken as 1 g/ml, read-out: Cmax in jejunum tissue): 92000 ng/mL | Cmax ([3]; male, mouse, plasma, po, 100 mg/kg p.o. single dose, read-out: Cmax in plasma): 71 ng/mL | concentration at 10 h ([3]; male, mouse, plasma, po, 100 mg/kg p.o. single dose, read-out: drug concentration in plasma after 10 h): < 10 ng/mL | concentration at 3 days ([4]; read-out: concentration in gallbladder): 112 ± 30 ng/mL | concentration at 3 days ([4]; bile, read-out: concentration in bile): 7800 ± 1850 ng/mL | concentration at 3 days ([4]; plasma, read-out: concentration in plasma): 18 ± 3 ng/mL | level of alanine aminotransferase (ob/ob mice [5]; [8]): No significant changes | level of alkaline phosphatase (ob/ob mice [5]; [8]): No significant changes | level of aspartate aminotransferase (ob/ob mice [5]; [8]): No significant changes | level of total bilirubin (ob/ob mice [5]; [8]): No significant changes
Compound: CN(CC[N+](C)(C)C)C(=O)CCc1cc(Cl)c(Oc2ccsc2C(=O)N2CCN(C3CC3)c3ccccc32)cc1Cl [Compound 26a]
AUC0–120 min of blood glucose, signed change vs control (OGTT, Fig. 3B) (ICR mice; 100 mg/kg p.o.): -18% | decrease of blood glucose AUC vs control (OGTT) (ICR mice; 100 mg/kg p.o. 1.5 h before glucose 4 g/kg): 18% | time post-dosing until which glucose-lowering effect was maintained (ob/ob mice [2]): at least 24 h | decrease of HbA1c level on day 18 (ob/ob mice [5]; 50 mg/kg p.o., not significant): 0.48% | triglyceride, signed change vs control (Fig. 9D) (ob/ob mice [5]; 50 mg/kg p.o., after 18-day treatment): -7.2% | HbA1c, signed change vs control (Fig. 9C) (ob/ob mice [5]; 50 mg/kg p.o.): -0.48% | decrease of HbA1c level on day 18 (ob/ob mice [5]; 100 mg/kg p.o., significant): 0.94% | decrease of triglyceride level (ob/ob mice [5]; [6]): 22% | triglyceride, signed change vs control (Fig. 9D) (ob/ob mice [5]; [6]): -22% | HbA1c, signed change vs control (Fig. 9C) (ob/ob mice [5]; 100 mg/kg p.o.): -0.94% | body weight of mice (ob/ob mice [5]; 18-day treatment): not affected | significant change in levels of total cholesterol (ob/ob mice [5]; 18-day treatment, 50 or 100 mg/kg p.o.): not observed | fasting blood glucose (ob/ob mice [5]; [7]): decreased dramatically | non-fasting blood glucose (ob/ob mice [5]; [7]): decreased dramatically
